Reference: patent publication US7550485B2, “Substituted N-heterocycle derivatives and methods of their use” (Wyeth, priority 2003, dated 2009)
Structures can show the parent of a compound that is named as a salt.

Molecular target: T1, hNET (Homo sapiens, UniProt P23975)
T1 construct: expressed in transfected cells
Experiment: Norepinephrine (NE) uptake assay in MDCK-Net6 cells stably transfected with human hNET
Format: cell-based
Conditions: [3H]NE uptake; for inhibition at 1 µM: MDCK-Net6, 1 μM test compound; for EC50: test range 1 to 10,000 nM; for inhibition at 30 µM: MDCK-Net6, 30 μM test compound (stated in cell)
Procedure, shortened: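 MDCK-Net6 cells preincubated 20 min at 37 °C with compound (1 to 10,000 nM) in HEPES buffer pH 7.4 with pargyline and ascorbate, then 5 min [3H]NE uptake (120 nM final). Lysed cells counted by scintillation; 1 μM desipramine defined minimum uptake; EC50 from logistic fit of pooled data.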

T1 sequence (P23975 whole entry): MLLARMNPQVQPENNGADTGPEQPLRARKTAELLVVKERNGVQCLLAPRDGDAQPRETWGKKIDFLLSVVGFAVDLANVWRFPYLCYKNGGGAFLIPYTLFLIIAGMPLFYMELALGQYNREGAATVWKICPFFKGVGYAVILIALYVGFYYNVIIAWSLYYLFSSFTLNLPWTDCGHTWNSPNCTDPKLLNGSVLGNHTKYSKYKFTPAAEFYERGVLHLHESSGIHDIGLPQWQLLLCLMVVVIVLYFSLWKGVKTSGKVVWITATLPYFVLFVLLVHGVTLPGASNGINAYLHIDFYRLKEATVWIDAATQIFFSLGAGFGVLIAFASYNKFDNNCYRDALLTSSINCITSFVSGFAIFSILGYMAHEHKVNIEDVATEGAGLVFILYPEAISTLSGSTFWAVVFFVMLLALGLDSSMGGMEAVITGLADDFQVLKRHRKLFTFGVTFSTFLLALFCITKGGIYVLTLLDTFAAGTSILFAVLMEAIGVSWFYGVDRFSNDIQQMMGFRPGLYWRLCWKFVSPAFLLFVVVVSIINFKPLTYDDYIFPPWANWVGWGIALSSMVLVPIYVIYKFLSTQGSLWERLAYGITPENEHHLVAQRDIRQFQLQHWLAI

CNC1CCN(C[C@H](c2cccc(OC(F)(F)F)c2)C2(O)CCCCC2)CC1 [Example 359, 1-{(1S)-2-[4-(methylamino)piperidin-1-yl]-1-[3-(trifluoromethoxy)phenyl]ethyl}cyclohexanol dihydrochloride]
inhibition at 1 µM: 86%
EC50: 0.29 µM

CN(C)C1CCN(C[C@H](c2cccc(OC(F)(F)F)c2)C2(O)CCCCC2)CC1 [Example 360, 1-{(1S)-2-[4-(dimethylamino)piperidin-1-yl]-1-[3-(trifluoromethoxy)phenyl]ethyl}cyclohexanol dihydrochloride]
inhibition at 1 µM: 88%
EC50: 0.22 µM

OC1(C(CN2CCC(N3CCOCC3)CC2)c2cccc(OC(F)(F)F)c2)CCCCC1 (centres unmarked) [Example 361, 1-{2-(4-morpholin-4-ylpiperidin-1-yl)-1-[3-(trifluoromethoxy)phenyl]ethyl}cyclohexanol dihydrochloride]
inhibition at 1 µM: 67%
EC50: 0.64 µM

OC1([C@H](CN2CCC(N3CCCC3)CC2)c2cccc(OC(F)(F)F)c2)CCCCC1 [Example 365, 1-{(1S)-2-(4-pyrrolidin-1-ylpiperidin-1-yl)-1-[3-(trifluoromethoxy)phenyl]ethyl}cyclohexanol dihydrochloride]
inhibition at 1 µM: 94%
EC50: 0.078 µM

OC1([C@H](CN2CCC(N3CCCCC3)CC2)c2cccc(OC(F)(F)F)c2)CCCCC1 [Example 366, 1-{(1S)-2-(1,4′-bipiperidin-1′-yl)-1-[3-(trifluoromethoxy)phenyl]ethyl}cyclohexanol dihydrochloride]
inhibition at 1 µM: 99%
EC50: 0.11 µM

N[C@@H]1CCN(CC(c2ccc3ccccc3c2)C2(O)CCCCC2)C1 (stereo partly drawn) [Example 374, 1-[2-[(3R)-3-aminopyrrolidin-1-yl]-1-(2-naphthyl)ethyl]cyclohexanol dihydrochloride]
inhibition at 1 µM: 46%

CN(C)[C@@H]1CCN(CC(c2ccc3ccccc3c2)C2(O)CCCCC2)C1 (stereo partly drawn) [Example 375, 1-[2-[(3R)-3-(dimethylamino)pyrrolidin-1-yl]-1-(2-naphthyl)ethyl]cyclohexanol dihydrochloride]
inhibition at 1 µM: 39%

CN[C@@H]1CCN(CC(c2ccc3ccccc3c2)C2(O)CCCCC2)C1 (stereo partly drawn) [Example 376, 1-[2-[(3R)-3-(methylamino)pyrrolidin-1-yl]-1-(2-naphthyl)ethyl]cyclohexanol dihydrochloride]
inhibition at 1 µM: 30%

N[C@@H]1CCN(CC(c2cccc3ccccc23)C2(O)CCCCC2)C1 (stereo partly drawn) [Example 377, 1-[2-[(3R)-3-aminopyrrolidin-1-yl]-1-(1-naphthyl)ethyl]cyclohexanol dihydrochloride]
inhibition at 30 µM: 82%

CN(C)[C@@H]1CCN(CC(c2cccc3ccccc23)C2(O)CCCCC2)C1 (stereo partly drawn) [Example 378, 1-[2-[(3R)-3-(dimethylamino)pyrrolidin-1-yl]-1-(1-naphthyl)ethyl]cyclohexanol dihydrochloride]
inhibition at 1 µM: 28%

CN[C@@H]1CCN(CC(c2cccc3ccccc23)C2(O)CCCCC2)C1 (stereo partly drawn) [Example 379, 1-[2-[(3R)-3-(methylamino)pyrrolidin-1-yl]-1-(1-naphthyl)ethyl]cyclohexanol dihydrochloride]
inhibition at 1 µM: 19%

N[C@@H]1CCN(CC(c2ccc(OCc3ccccc3)cc2)C2(O)CCCCC2)C1 (stereo partly drawn) [Example 380, 1-{2-[(3R)-3-aminopyrrolidin-1-yl]-1-[4-(benzyloxy)phenyl]ethyl}cyclohexanol dihydrochloride]
inhibition at 1 µM: 20%

CN(C)[C@@H]1CCN(CC(c2ccc(OCc3ccccc3)cc2)C2(O)CCCCC2)C1 (stereo partly drawn) [Example 381, 1-{1-[4-(benzyloxy)phenyl]-2-[(3R)-3-(dimethylamino)pyrrolidin-1-yl]ethyl}cyclohexanol dihydrochloride]
inhibition at 30 µM: 95%

CN[C@@H]1CCN(CC(c2ccc(OCc3ccccc3)cc2)C2(O)CCCCC2)C1 (stereo partly drawn) [Example 382, 1-{1-[4-(benzyloxy)phenyl]-2-[(3R)-3-(methylamino)pyrrolidin-1-yl]ethyl}cyclohexanol dihydrochloride]
inhibition at 1 µM: 50%

N[C@@H]1CCN(CC(c2ccc(OCc3ccccc3)c(Cl)c2)C2(O)CCCCC2)C1 (stereo partly drawn) [Example 383, 1-{2-[(3R)-3-aminopyrrolidin-1-yl]-1-[4-(benzyloxy)-3-chlorophenyl]ethyl}cyclohexanol dihydrochloride]
inhibition at 1 µM: 90%

CN(C)[C@@H]1CCN(CC(c2ccc(OCc3ccccc3)c(Cl)c2)C2(O)CCCCC2)C1 (stereo partly drawn) [Example 384, 1-{1-[4-(benzyloxy)-3-chlorophenyl]-2-[(3R)-3-(dimethylamino)pyrrolidin-1-yl]ethyl}cyclohexanol dihydrochloride]
inhibition at 1 µM: 88%
EC50: 0.45 µM

CN[C@@H]1CCN(CC(c2ccc(OCc3ccccc3)c(Cl)c2)C2(O)CCCCC2)C1 (stereo partly drawn) [Example 385, 1-{1-[4-(benzyloxy)-3-chlorophenyl]-2-[(3R)-3-(methylamino)pyrrolidin-1-yl]ethyl}cyclohexanol dihydrochloride]
inhibition at 1 µM: 65%
EC50: 0.27 µM

N[C@@H]1CCN(CC(c2cccc(OC(F)(F)F)c2)C2(O)CCCCC2)C1 (stereo partly drawn) [Example 386, 1-{2-[(3R)-3-aminopyrrolidin-1-yl]-1-[3-(trifluoromethoxy)phenyl]ethyl}cyclohexanol dihydrochloride]
inhibition at 30 µM: 82%

N[C@H]1CCN(C[C@H](c2cccc(Cl)c2)C2(O)CCCCC2)C1 [Example 387, 1-[(1S)-2-[(3S)-3-aminopyrrolidin-1-yl]-1-(3-chlorophenyl)ethyl]cyclohexanol dihydrochloride]
EC50: 0.41 µM

N[C@H]1CCN(C[C@@H](c2cccc(Cl)c2)C2(O)CCCCC2)C1 [Example 388, 1-[(1 R)-2-[(3S)-3-aminopyrrolidin-1-yl]-1-(3-chlorophenyl)ethyl]cyclohexanol dihydrochloride]
EC50: 0.085 µM

C[C@@H]1CCC(O)([C@H](CN2CCC(N3CCCCC3)CC2)c2cccc(OC(F)(F)F)c2)C1 (stereo partly drawn) [Example 398, (3R)-1-{2-(1.4′-bipiperidin-1′-yl)-1-[3-(trifluoromethoxy)phenyl]ethyl}-3-methylcyclopentanol dihydrochloride]
inhibition at 1 µM: 0%

NC1CCN(CC(c2ccc(OCc3ccccc3)c(Cl)c2)C2(O)CCCCC2)CC1 (centres unmarked) [Example 428, 1-{2-(4-aminopiperidin-1-yl)-1-[4-(benzyloxy)-3-chlorophenyl]ethyl}cyclohexanol dihydrochloride]
inhibition at 1 µM: 92%
EC50: 0.11 µM

CN(C)C1CCN(CC(c2ccc(OCc3ccccc3)c(Cl)c2)C2(O)CCCCC2)CC1 (centres unmarked) [Example 429, 1-{1-[4-(benzyloxy)-3-chlorophenyl]-2-[4-(dimethylamino)piperidin-1-yl]ethyl}cyclohexanol]
inhibition at 1 µM: 96%
EC50: 0.18 µM

NC1CCN(CC(c2ccc(OCc3ccc4ccccc4c3)c(Cl)c2)C2(O)CCCCC2)CC1 (centres unmarked) [Example 430, 1-{2-(4-aminopiperidin-1-yl)-1-[3-chloro-4-(2-naphthylmethoxy)phenyl]ethyl}cyclohexanol dihydrochloride]
inhibition at 1 µM: 42%

CN(C)C1CCN(CC(c2ccc(OCc3ccc4ccccc4c3)c(Cl)c2)C2(O)CCCCC2)CC1 (centres unmarked) [Example 431, 1-{1-[3-chloro-4-(2-naphthylmethoxyl)phenyl]-2-[4-(dimethylamino)piperidin-1-yl]ethyl}cyclohexanol dihydrochloride]
inhibition at 1 µM: 79%
EC50: 0.054 µM
